The nature of series [1]: Turbidity measurement. The class given is physicochemical. The conditions noted are these: for Turbidity (Relative Value): Table 3, relative to curcumin = 1. Here is the method: The turbidity of various compounds was measured. The method is as follows. […] Curcumin was cloudy while GO-Y199 was clear. The solubility was measured with a turbidimeter (WZB-170 Portable Turbidimeter available from REX). The turbidity of the compound was corrected for concentration.
Subsequently, GO-Y206 and curcumin were adjusted to final concentrations of 1.25 μM and 5.00 μM, respectively, and their turbidities were measured.

Series [2] has as its system colorectal cancer cell line DLD-1. Kind of series: Cell growth inhibitory activity, DLD-1. Type of series: cell-based. Conditions: Table 6; read-out: IC50 (μM) DLD-1. Here is the method:
(§1) The cell growth inhibitory activity against a colorectal cancer cell line HCT116 was measured. As an index of cell growth inhibitory activity, a concentration at which cell growth was inhibited by 50% as compared with a control (IC50) was used. The method is as follows. HCT116 was added to a 6-well plate by 5×10^4, compounds having various concentrations were added after 24 hours, and the number of cells was counted after 72 hours of culture. As the control, DMSO was used in an amount equal to the amount added in accordance with the addition concentration of the highest-concentration compound. The number of cells at each concentration relative to the control was expressed as a percentage.
(§2) The method is as described above.
(§3) The cell growth inhibitory activity (IC50) of each of curcumin, GO-Y199, and GO-Y206 against the colorectal cancer cell lines DLD-1 and HCT116 and the gastric cancer cell lines KATO III and H-111-TC was measured. The method is as described above.

Series [3] deals with colorectal cancer cell line HCT116. Nature of the series: Cell growth inhibitory activity, HCT116. The class given is cell-based. Here is the method:
as §1, §2, §3

For series [4], the system named is gastric cancer cell line KATO III. Nature of the series: Cell growth inhibitory activity, KATO III. Type of series: cell-based. The conditions noted are these: Table 6; read-out: IC50 (μM) KATO III. The procedure:
as §1, §2, §3

The test system of series [5] is gastric cancer cell line H-111-TC. Nature of the series: Cell growth inhibitory activity, H-111-TC. Conditions: Table 6. The class given is cell-based. Here is the method: as §1, with “percentage. In Table 3, the turbidities of the compounds are also indicated.” for “percentage.”
The cell growth inhibitory activity (IC50) of each of curcumin, GO-Y199, and GO-Y206 against the colorectal cancer cell lines DLD-1 and HCT116 and the gastric cancer cell lines KATO III and H-111-TC was measured. The method is as described above. FIG. 8 indicates the results of cell growth inhibitory activity of these compounds against various cancer cell lines.

Series [6] relates to cutaneous T-cell lymphoma cell line HH. Kind of series: Cell growth inhibitory activity, HH. The class given is cell-based. Conditions: Table 10. Here is the method: [The source words this procedure for another cell line and reports this cell line under the same test.] as §1, §2
Series [7] deals with malignant melanoma cell line G361. Kind of series: Cell growth inhibitory activity, G361. Type of series: cell-based. Conditions: Table 9. Here is the method:
[The source words this procedure for another cell line and reports this cell line under the same test.] as §1, §2

Series [8] concerns vascular endothelial cells HUVEC-R resistant to Ki8751. Kind of series: Angiogenesis inhibitory activity, HUVEC-R. The conditions noted are these: Table 11; number of cells after 72 hours. The class given is cell-based. Here is the method: HUVEC-R was cultured in the presence of each compound using an EGMTM-2 Bullet Kit (Takara Bio Inc., Otsu, Japan), and the number of cells was measured after 72 hours. In addition, IC50 was determined from the results.

The test system of series [9] is cutaneous T-cell lymphoma cell line HUT78. Nature of the series: Cell growth inhibitory activity, HUT78. The class given is cell-based. Conditions: Table 10. The procedure: [The source words this procedure for another cell line and reports this cell line under the same test.] as §1, §2
Series [10] concerns malignant pleural mesothelioma cell line MSTO211H. Nature of the series: Cell growth inhibitory activity, MSTO211H. The class given is cell-based. The conditions noted are these: Table 8. The procedure: as §1, with “percentage. In Table 3, the turbidities of the compounds are also indicated.” for “percentage.”
(§4) GO-Y198, GO-Y199, and GO-Y200 against malignant pleural mesothelioma cell lines NCI-H226 and MSTO211H was measured. The method is as described above. For comparison, the IC50 of cisplatin (CDDP), a cytocidal anticancer agent, is also indicated.

Series [11] relates to malignant pleural mesothelioma cell line NCI-H226. Kind of series: Cell growth inhibitory activity, NCI-H226. Conditions: Table 8. The class given is cell-based. Here is the method: as §1, with “percentage. In Table 3, the turbidities of the compounds are also indicated.” for “percentage.”
as §4

Series [12] relates to pancreatic cancer cell line ASPC-1. Nature of the series: Cell growth inhibitory activity, ASPC-1. The class given is cell-based. Conditions: Table 7. The procedure: [The source words this procedure for another cell line and reports this cell line under the same test.] as §1, §2
For series [13], the system named is pancreatic cancer cell line Panc-1. Kind of series: Cell growth inhibitory activity, Panc-1. The class given is cell-based. Conditions: Table 7. Here is the method: [The source words this procedure for another cell line and reports this cell line under the same test.] as §1, §2
Setting [14] is: Table 1, average turbidity corrected for final concentration (1.7-170 μm, per compound).
Where [15] appears, read: Table 1, turbidity/μm relative to curcumin = 1.
Setting [16] is: Table 3, HCT116, cell count after 72 hours of culture vs DMSO control, read-out: IC50.

Each structure is given as a SMILES string. Where two headings read alike, the source gives them in different places.

On to `COCOc1cc(C=CC(=O)CC(SCCOCCOCCOCCOCc2cn(C3CC(O)C(O)C(CO)O3)nn2)c2cc(OCOC)cc(OCOC)c2)cc(OCOC)c1` (mixture of isomers) [GO-Y206], for which the Turbidity/μm in [1] (Table 2, final conc. 1.25 μM) amounted to 0.144 NTU/μM; in series [1] (Table 2, final conc. 5.0 μM), 0.364 NTU/μM. Besides, the “Turbidity (NTU)” value in [1] (Table 2, final conc. 5.0 μM) is given as 1.82 NTU. In addition, in series [1] (Table 2, value in parentheses, relative to curcumin = 1.00), the “Relative Value (turbidity)” value is on record as “(0.052)”. Besides, the “turbidity as percent of curcumin” value in [1] (from averaged NTU/μM) amounted to 5%. The IC50 is 1.21 µM in series [2]; 0.91 µM in [3] (Table 6, read-out: IC50 (μM) HCT116); 3.11 µM in [4]; 4.67 µM in [5].
In series [1] (setting [14]), `COCOc1cc(/C=C/C(=O)/C=C/c2cc(OCOC)cc(OCOC)c2)cc(OCOC)c1` [GO-Y030, (1E,4E)-1,5-bis-[3,5-bis(methoxymethoxy)phenyl]pentadiene-3-one, reference compound] registered a Turbidity/μm of 2.68 NTU/μM. Moreover, in series [1] (final conc. 17 μm in DDW), the “Ave Turbidity (NTU)” value is recorded as 45.6 ± 0.21 NTU. The “Turbidity (NTU)” value in [1] (individual measurements, final conc. 170 μm, DMSO stock diluted in 30 mL DDW) is “over limit”.
On to `COCOc1cc(/C=C/C(=O)CC(SCCOCCOCCOCCOCc2cn([C@H]3O[C@@H](CO)[C@H](O)[C@@H](O)[C@@H]3O)nn2)c2cc(OCOC)cc(OCOC)c2)cc(OCOC)c1` (some centres unmarked) [GO-Y197], for which the IC50 in series [6] stood at 1.11 µM; in series [3] (setting [16]), 0.7 µM; in series [7], 1.1 µM; in series [8], 0.96 µM; in series [9], 0.81 µM; in series [10] it was 3.9 µM. The half-inhibitory concentration (IC50) in [11] stood at 4 µM. Further, in series [1] (setting [14]), the Turbidity/μm was 0 NTU/μM. Besides, in [1] (setting [15]), the “Relative Value (turbidity)” value was 0. For the same molecule, the “Turbidity (Relative Value)” value in [1] stood at 0. In series [1] (final conc. 8.3 μm in DDW), the “Ave Turbidity (NTU)” value is recorded as 0 NTU.
Take `COCOc1cc(/C=C/C(=O)CC(SCCOCCOCCOCCOCc2cn(CCCO)nn2)c2cc(OCOC)cc(OCOC)c2)cc(OCOC)c1` (racemic) [GO-Y194]: the IC50 in series [3] (setting [16]) worked out at 0.5 µM.
As to `COCOc1cc(C=CC(=O)CC(SCCOCCOCCOCCOCc2cn(C3OC(CO)C(O)C(O)C3O)nn2)c2cc(OCOC)cc(OCOC)c2)cc(OCOC)c1` (mixture of isomers) [GO-Y196], the Turbidity/μm in [1] (setting [14]) came to 0 NTU/μM. For the same molecule, the “Relative Value (turbidity)” value in series [1] (setting [15]) was determined as 0. Moreover, the “Turbidity (Relative Value)” value in series [1] worked out at 0. In addition, in series [1] (final conc. 8.3 μm in DDW), the “Ave Turbidity (NTU)” value amounted to 0 NTU. Besides, in [3] (setting [16]), the IC50 was determined as 0.67 µM.
In the case of `COCOc1cc(/C=C/C(=O)CC(SCCOCCOCCOCCOCc2cn([C@H]3O[C@H](CO)[C@@H](O)[C@H](O)[C@@H]3O)nn2)c2cc(OCOC)cc(OCOC)c2)cc(OCOC)c1` (some centres unmarked) [GO-Y198], the IC50 in series [6] came to 1.15 µM; in [3] (setting [16]) it was 0.44 µM; in [8], 1.08 µM; in series [9], 0.51 µM; in series [10] it was 0.9 µM; in series [11], 4.2 µM. Moreover, the Turbidity/μm in [1] (setting [14]) amounted to 0 NTU/μM. For the same molecule, the “Relative Value (turbidity)” value in [1] (setting [15]) was found to be 0. Further, in [1], the “Turbidity (Relative Value)” value is 0. In series [1] (final conc. 8.3 μm in DDW), the “Ave Turbidity (NTU)” value amounted to 0 NTU.
On to `COCOc1cc(C=CC(=O)CC(SCCOCCOCCOCCOCc2cn(CCCOC(=O)CCCCC3SCC4NC(=O)NC43)nn2)c2cc(OCOC)cc(OCOC)c2)cc(OCOC)c1` (mixture of isomers) [GO-Y195], for which the IC50 in series [3] (setting [16]) came out at 1.8 µM.
In series [1] (setting [14]), `COCOc1cc(/C=C/C(=O)CC(SCC(=O)OC)c2cc(OCOC)cc(OCOC)c2)cc(OCOC)c1` (racemic) [GO-Y136, reference compound] returned a Turbidity/μm of 0.024 NTU/μM. Besides, the “Relative Value (turbidity)” value in series [1] (setting [15]) is 0.083. Also, the “Turbidity (Relative Value)” value in series [1] is reported as 0.083. The “Ave Turbidity (NTU)” value in series [1] (final conc. 1.7 μm in DDW) amounted to 0.04 ± 0.0082 NTU. For the same molecule, the IC50 in series [3] (setting [16]) was 0.89 µM.
`COc1cc(/C=C/C(=O)/C=C/c2ccc(O)c(OC)c2)ccc1O` [GO-Y022, reference compound]: the IC50 came to 9.16 µM in [6]; 8.52 µM in series [12]; 2.02 µM in series [3] (setting [16]); 3.1 µM in series [7]; 4.7 µM in series [8]; 4.03 µM in series [9]. Moreover, the IC50 in series [13] came to 6.67 µM. For the same molecule, the Turbidity/μm in series [1] (setting [14]) was found to be 0.014 NTU/μM. Also, the “Relative Value (turbidity)” value in [1] (setting [15]) turned out to be 0.048. In series [1], the “Turbidity (Relative Value)” value was found to be 0.048. Also, the “Ave Turbidity (NTU)” value in series [1] (final conc. 8.3 μm in DDW) is on record as 0.12 ± 0.0094 NTU.
As for `COCOc1cc(/C=C/C(=O)CC(SCCOCCOCCOCCOCc2cn([C@@H]3O[C@H](CO)[C@@H](O[C@H]4O[C@H](CO)[C@@H](O)[C@H](O)[C@H]4O)[C@H](O)[C@H]3O)nn2)c2cc(OCOC)cc(OCOC)c2)cc(OCOC)c1` (some centres unmarked) [GO-Y200], the IC50 in [6] was 1.31 µM; in series [12], 1.33 µM; in series [3] (setting [16]), 0.42 µM; in [8], 1.3 µM; in series [9], 0.91 µM; in [10] it was 4.5 µM. Further, the IC50 in series [13] was found to be 0.91 µM; in series [11], 4.7 µM. Further, the Turbidity/μm in series [1] (setting [14]) is given as 0 NTU/μM. For the same molecule, the “Relative Value (turbidity)” value in series [1] (setting [15]) worked out at 0. In addition, the “Turbidity (Relative Value)” value in series [1] is recorded as 0. Further, in [1] (final conc. 8.3 μm in DDW), the “Ave Turbidity (NTU)” value was 0 NTU.

Usually IC50 stands for the concentration needed to halve the response being measured.

The record behind these values is patent US20240158430A1, “NOVEL COMPOUND OR SALT THEREOF, AND ANTITUMOR ACTIVATOR CONTAINING SAME AS ACTIVE INGREDIENT” (AKITA UNIVERSITY, priority 2021, published 2024).
